# Source: patent publication US20200024278A1, “COMPOSITION COMPRISING ANTIBIOTIC COMPOUND AND AN HETEROCYCLIC COMPOUND AND THEIR USE IN PREVENTING OR TREATING BACTERIAL INFECTIONS” (MUTABILIS, priority 2016, published 2020)
# Tests used:
# Experiment in all cases: MIC, broth microdilution (CLSI), substance alone or ATB combined with compound at 4 or 8 μg/mL
# ECO 190317 = type: cell-based, E. coli; conditions: ECO 190317
# Summary of the method: (§1)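 CLSI broth microdilution in cation-adjusted Mueller-Hinton broth, 5·10^5 CFU/mL log-phase inoculum, 16-20 h at 35 °C in ambient air. Fosfomycin assays supplemented with 25 μg/ml glucose-6-phosphate.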
# ECO UFR39 = type: cell-based, E. coli; conditions: ECO UFR39; for MIC ATB combined with Example compound: compound @8 μg/ml
# Summary of the method: as §1
# KPN 6299 = type: cell-based, K. pneumoniae; conditions: MIC of CIP, compound @8 μg/ml
# Summary of the method: as §1
# KPN BAA-1898 = type: cell-based, K. pneumoniae; conditions: KPN BAA-1898
# Summary of the method: as §1
# KPN UFR42 = type: cell-based, K. pneumoniae; conditions: KPN UFR42; for MIC ATB combined with Example compound: compound @8 μg/ml
# Summary of the method: as §1
# ECL P99 = type: cell-based, E. cloacae; conditions: ECL P99
# Summary of the method: as §1
# PAE 105250 = type: cell-based, P. aeruginosa; conditions: PAE 105250; for MIC ATB combined with compound / MIC ATB combined with Example compound: compound @8 μg/ml
# Summary of the method: as §1
# PAE UFR48 = type: cell-based, P. aeruginosa; conditions: PAE UFR48; for MIC ATB combined with compound / MIC ATB combined with Example compound: compound @8 μg/ml
# Summary of the method: as §1
# PAE UFR90 = type: cell-based, P. aeruginosa; conditions: PAE UFR90; for MIC ATB combined with compound / MIC ATB combined with Example compound: compound @8 μg/ml
# Summary of the method: as §1
# SAU 29213 = type: cell-based, S. aureus; conditions: for MIC ATB combined with compound / MIC ATB combined with Example compound: compound @8 μg/ml, SAU 29213
# Summary of the method: as §1
# SPN 49619 = type: cell-based, S. pneumoniae; conditions: SPN 49619; for MIC ATB combined with compound / MIC ATB combined with Example compound: compound @8 μg/ml
# Summary of the method: as §1
# ABA 19606 = type: cell-based, A. baumannii; conditions: Acinetobacter baumannii, substance alone, read-out: MIC
# Summary of the method: as §1
# ABA UFR159 = type: cell-based, A. baumannii; conditions: Acinetobacter baumannii, substance alone, read-out: MIC
# Summary of the method: as §1
# [1] = Escherichia coli, substance alone, read-out: MIC
# [2] = Pseudomonas aeruginosa, substance alone, read-out: MIC
structure (smiles),measurement,setting,value
"NC[C@H]1C=C(c2cnco2)[C@@H]2CN1C(=O)N2OS(=O)(=O)[O-].O=C(O)C(F)(F)F.[Na+] (relative stereo) [Example 1, sodium and 2,2,2-trifluoroacetate [trans-2-(azaniumylmethyl)-4-oxazol-5-yl-7-oxo-1,6-diazabicyclo[3.2.1]oct-3-en-6-yl] sulfate]",MIC,ECO 190317; [1],0.031 mg/L
same,MIC ATB combined with Example compound,"ECO 190317; MIC of CIP, compound @8 μg/ml",<0.031 mg/L
same,MIC,ECO UFR39; [1],0.031 mg/L
same,MIC ATB combined with Example compound,ECO UFR39; MIC of CIP,<0.031 mg/L
same,MIC ATB combined with Example compound,ECO UFR39; MIC of CPO,<0.031 mg/L
same,MIC ATB combined with Example compound,KPN 6299,32 mg/L
same,MIC,"KPN BAA-1898; Klebsiella pneumoniae, BAA1898, substance alone, read-out: MIC",> 32 mg/L
same,MIC ATB combined with Example compound,"KPN BAA-1898; MIC of CIP, compound @8 μg/ml",16 mg/L
same,MIC,"KPN UFR42; Klebsiella pneumoniae, substance alone, read-out: MIC",> 32 mg/L
same,MIC ATB combined with Example compound,KPN UFR42; MIC of CIP,>32 mg/L
same,MIC ATB combined with Example compound,KPN UFR42; MIC of CPO,16 mg/L
same,MIC,"ECL P99; Enterobacter cloacae, substance alone, read-out: MIC",0.031 mg/L
same,MIC ATB combined with Example compound,"ECL P99; MIC of CIP, compound @8 μg/ml",<0.031 mg/L
same,MIC ATB combined with compound,PAE 105250; ATB ATM,<0.031 mg/L
same,MIC ATB combined with compound,PAE 105250; ATB FEP,<0.031 mg/L
same,MIC ATB combined with compound,PAE 105250; ATB FOS,4 mg/L
same,MIC ATB combined with compound,PAE 105250; ATB MEM,<0.031 mg/L
same,MIC ATB combined with compound,PAE 105250; ATB PIP,<0.031 mg/L
same,MIC ATB combined with Example compound,PAE 105250; MIC of CIP,<0.031 mg/L
same,MIC ATB combined with Example compound,PAE 105250; MIC of CPO,<0.031 mg/L
same,MIC,PAE 105250; [2],> 32 mg/L
same,MIC ATB combined with compound,PAE UFR48; ATB ATM,<0.031 mg/L
same,MIC ATB combined with compound,PAE UFR48; ATB FEP,<0.031 mg/L
same,MIC ATB combined with compound,PAE UFR48; ATB FOS,2 mg/L
same,MIC ATB combined with compound,PAE UFR48; ATB MEM,<0.031 mg/L
same,MIC ATB combined with compound,PAE UFR48; ATB PIP,<0.031 mg/L
same,MIC ATB combined with Example compound,PAE UFR48; MIC of CIP,<0.031 mg/L
same,MIC ATB combined with Example compound,PAE UFR48; MIC of CPO,<0.031 mg/L
same,MIC,PAE UFR48; [2],4 mg/L
same,MIC ATB combined with compound,PAE UFR90; ATB ATM,<0.031 mg/L
same,MIC ATB combined with compound,PAE UFR90; ATB FEP,<0.031 mg/L
same,MIC ATB combined with compound,PAE UFR90; ATB FOS,<0.125 mg/L
same,MIC ATB combined with compound,PAE UFR90; ATB MEM,<0.031 mg/L
same,MIC ATB combined with compound,PAE UFR90; ATB PIP,<0.031 mg/L
same,MIC ATB combined with Example compound,PAE UFR90; MIC of CIP,<0.031 mg/L
same,MIC ATB combined with Example compound,PAE UFR90; MIC of CPO,<0.031 mg/L
same,MIC,PAE UFR90; [2],0.5 mg/L
same,MIC ATB combined with compound,SAU 29213; ATB ATM,>32 mg/L
same,MIC ATB combined with compound,SAU 29213; ATB FEP,4 mg/L
same,MIC ATB combined with compound,SAU 29213; ATB FOS,1 mg/L
same,MIC ATB combined with compound,SAU 29213; ATB MEM,0.125 mg/L
same,MIC ATB combined with compound,SAU 29213; ATB PIP,5 mg/L
same,MIC ATB combined with Example compound,SAU 29213; MIC of CIP,0.5 mg/L
same,MIC ATB combined with Example compound,SAU 29213; MIC of CLI,0.125 mg/L
same,MIC ATB combined with Example compound,SAU 29213; MIC of CPO,1 mg/L
same,MIC ATB combined with Example compound,SAU 29213; MIC of DAP,0.0078 mg/L
same,MIC ATB combined with Example compound,SAU 29213; MIC of ERY,0.25 mg/L
same,MIC ATB combined with Example compound,SAU 29213; MIC of LZD,2 mg/L
same,MIC ATB combined with Example compound,SAU 29213; MIC of RIF,0.0078 mg/L
same,MIC ATB combined with Example compound,SAU 29213; MIC of SYN,0.5 mg/L
same,MIC ATB combined with Example compound,SAU 29213; MIC of VAN,1 mg/L
same,MIC,"SAU 29213; Staphylococcus aureus, substance alone, SAU 29213 (MSSA 29213), read-out: MIC",> 32 mg/L
same,MIC ATB combined with compound,SPN 49619; ATB ATM,>32 mg/L
same,MIC ATB combined with compound,SPN 49619; ATB FEP,0.063 mg/L
same,MIC ATB combined with compound,SPN 49619; ATB FOS,32 mg/L
same,MIC ATB combined with compound,SPN 49619; ATB MEM,0.063 mg/L
same,MIC ATB combined with compound,SPN 49619; ATB PIP,0.5 mg/L
same,MIC ATB combined with Example compound,SPN 49619; MIC of CIP,1 mg/L
same,MIC ATB combined with Example compound,SPN 49619; MIC of CLI,0.063 mg/L
same,MIC ATB combined with Example compound,SPN 49619; MIC of CPO,<=0.031 μg/mL
same,MIC ATB combined with Example compound,SPN 49619; MIC of DAP,0.125 mg/L
same,MIC ATB combined with Example compound,SPN 49619; MIC of ERY,0.063 mg/L
same,MIC ATB combined with Example compound,SPN 49619; MIC of LZD,1 mg/L
same,MIC ATB combined with Example compound,SPN 49619; MIC of RIF,0.063 mg/L
same,MIC ATB combined with Example compound,SPN 49619; MIC of SYN,0.5 mg/L
same,MIC ATB combined with Example compound,SPN 49619; MIC of VAN,0.25 mg/L
same,MIC,"SPN 49619; Streptococcus pneumoniae, substance alone, read-out: MIC",> 32 mg/L
same,MIC,ABA 19606,> 32 mg/L
same,MIC,ABA UFR159,> 32 mg/L
